Experimental data: publication PMC3426442 (Bioorganic & medicinal chemistry letters, 2012)

Experiments:
[1] = in vitro; compared to A43D (A43D compared to bevirimat)
in vitro = conditions: human, microsomes
NL4-3 V370A = conditions: V370A versus NL4-3, single cycle infection assay
[2] = ref not given; cited from earlier work

SMILES: C=C(C)[C@@H]1CC[C@]2(C(=O)NCCCCCCCCC(=O)N[C@@H](CCC(N)=O)C(=O)OCc3ccccc3)CC[C@]3(C)[C@H](CC[C@@H]4[C@@]5(C)CC[C@H](O)C(C)(C)[C@@H]5CC[C@]43C)[C@@H]12 [Compound 15]
- microsomal / metabolic stability in words [1]: improved metabolic stability
- microsomal CLint (in vitro): 169 µL/min/mg

SMILES: C=C(C)[C@@H]1CC[C@]2(C(=O)NCCCCCCCNC(C)=O)CC[C@]3(C)[C@H](CC[C@@H]4[C@@]5(C)CC[C@H](O)C(C)(C)[C@@H]5CC[C@]43C)[C@@H]12 [Compound 1]
- microsomal / metabolic stability in words [1]: poor
- microsomal CLint (in vitro): 272 µL/min/mg

SMILES: COC(=O)[C@H](CCC(N)=O)NC(=O)CCCCCCCCNC(=O)[C@]12CC[C@@H](C(C)C)[C@@H]1[C@H]1CC[C@@H]3[C@@]4(C)CC[C@H](O)C(C)(C)[C@@H]4CC[C@@]3(C)[C@]1(C)CC2 [Compound 38]
- microsomal / metabolic stability in words [1]: improved metabolic stability
- microsomal CLint (in vitro): 219 µL/min/mg

SMILES: C=C(C)[C@@H]1CC[C@]2(C(=O)NCCCCCCCCC(=O)N[C@@H](CCC(N)=O)C(=O)OC)CC[C@]3(C)[C@H](CC[C@@H]4[C@@]5(C)CC[C@H](O)C(C)(C)[C@@H]5CC[C@]43C)[C@@H]12 [Compound 13]
- microsomal / metabolic stability in words [1]: improved metabolic stability
- microsomal CLint (in vitro): 230 µL/min/mg

SMILES: Cc1cn([C@H]2C[C@H](N=[N+]=[N-])[C@@H](CO)O2)c(=O)[nH]c1=O [AZT, 3′-azido-3′-deoxythymidine]
- times less potent against the resistant variant (NL4-3 V370A): 2 times

SMILES: CC(C)(C)c1ccc(C(O)CCCN2CCC(C(O)(c3ccccc3)c3ccccc3)CC2)cc1 (stereo not drawn) [Terfenadine]
- half-life in vivo [2]: around 3.5 h

SMILES: CC(C)[C@@H]1CC[C@]2(C(=O)NCCCCCCCCC(=O)N[C@@H](CCC(N)=O)C(=O)O)CC[C@]3(C)[C@H](CC[C@@H]4[C@@]5(C)CC[C@H](O)C(C)(C)[C@@H]5CC[C@]43C)[C@@H]12 [Compound 39]
- microsomal CLint (in vitro): 280 µL/min/mg

SMILES: C=C(C)[C@@H]1CC[C@]2(C(=O)NCCCCCCCNC(=O)[C@H](CCC(N)=O)NC(=O)OC(C)(C)C)CC[C@]3(C)[C@H](CC[C@@H]4[C@@]5(C)CC[C@H](O)C(C)(C)[C@@H]5CC[C@]43C)[C@@H]12 [Compound 2]
- microsomal CLint (in vitro): 366 µL/min/mg
